From patent US9359409B2, “Antimicrobial peptides, compositions comprising the same and uses thereof” (priority 2012, dated 2016)
Ends that are not written are not given here. Peptide text beside a SMILES is read from it.

Columns and labels:
Escherichia coli = test system: Escherichia coli
Method: (§1) The 5 designed and synthesized peptides of the invention, plus omiganan (peptide of the state of the art) were evaluated for their antimicrobial capacity in microdilution assays for determining the minimum inhibitory concentration (MIC). A first panel of 8 representative strains was analyzed in these assays, encompassing Gram positive and Gram negative bacteria. […] The lowest MIC values indicate a higher antimicrobial potency.
(§2) Subsequently, an analysis of a panel of clinical isolates including strains with different resistance mechanisms against conventional antibiotics was carried out, all of which are of clinical relevance. […] In Table 3 the results for a panel of Gram negative bacteria are shown, and in Table 4 for a panel of […] bacteria. In these tables the detected gene/s responsible for the resistance against antibiotics for each strain, are included.
(§3) Antimicrobial activity was analyzed by means of the determination of the MIC (minimum inhibitory concentration) by the microdilution technique. The technique was carried out in the standard fashion according to (CLSI M07-A9 Vol. 32 No 2. January 2012). The peptide concentration range used was from 0.5 μg/mL to 512 μg/mL in two-fold serial dilutions. The used medium was MH Difco broth supplemented with cations, at a final concentration of Ca^++20-25 mg/L and Mg^++10-12.5 mg/L. The working inoculum used corresponds to a 1/100 dilution of a bacterial suspension equivalent to 0.5 in the Mc Farland scale.

Klebsiella pneumoniae = test system: Klebsiella pneumoniae
Method: as §1, §2, §3

Staphylococcus cohnii = test system: Staphylococcus cohnii
Method: as §1, §2, §3

Staphylococcus warneri = test system: Staphylococcus warneri
Method: as §1, §2, §3

Pseudomonas aeruginosa = assay: MIC by broth microdilution; format: cell-based
Method: as §1, §2, §3

E. coli = format: cell-based
Method: (§4) In vitro sensitivity assay of aerobically growing bacteria, using the disc diffusion method was performed according to the standards in the M2 document of the CLSI (Clinical and Laboratory Standards Institute: Performance Standards for Antimicrobial Disk Susceptibility Tests.) using the non-amidated peptides
(§5) In brief, intermediate solutions (10×) of the antimicrobial non-amidated peptides were prepared by serial dilutions 1:2, 1:4 and 1:8 by two-fold dilutions. Then, one part of the solution of the antimicrobial peptide 10× was added to nine parts of melted bacteriological agar. The antibiotic solution was added for each dilution, in the melted agar and cooled to 45-50° C. in a water bath. Then, the agar-antibiotic mixture was placed in a Petri dish until a 3-4 mm depth was reached. The inoculum is prepared with a turbidity of 0.5 in the McFarland scale (approximately 1-2 10^8 CFU/ml). The final inoculum required for the agar dilution test is 10^4 colony forming units (CFU) per “spot” having 5-8 mm in diameter. The inoculated plates must be incubated upside down at 35° C. for a period of 16-20 hs. MIC was recorded as the value of the lower dilution completely inhibiting bacterial development, without considering the development of a single colony or a slight film caused by the inoculum deposit. The final point in these cases will correspond to the concentration at which there is more than 80% reduction in growth as compared with the control.

K. pneumoniae = format: cell-based
Method: as §4, §5

P. aeruginosa = format: cell-based
Method: as §4, §5

S. aureus = format: cell-based
Method: as §4, §5

S. cohnii = format: cell-based
Method: as §4, §5

S. warnerii = format: cell-based
Method: as §4, §5

Row | Compound | MIC (Escherichia coli) | MIC (Klebsiella pneumoniae) | MIC (Staphylococcus cohnii) | MIC (Staphylococcus warneri) | MIC (Pseudomonas aeruginosa) | MIC in agar dilution (E. coli) | MIC in agar dilution (K. pneumoniae) | MIC in agar dilution (P. aeruginosa) | MIC in agar dilution (S. aureus) | MIC in agar dilution (S. cohnii) | MIC in agar dilution (S. warnerii)
1 | CC[C@H](C)[C@H](NC(=O)[C@H](CCCCN)NC(=O)[C@H](CCCNC(=N)N)NC(=O)[C@H](CC(N)=O)NC(=O)CNC(=O)[C@H](CCCNC(=N)N)NC(=O)[C@H](Cc1ccccc1)NC(=O)[C@@H](NC(=O)[C@H](CS)NC(=O)[C@H](Cc1c[nH]cn1)NC(=O)[C@H](CC(C)C)NC(=O)[C@@H]1CCCN1C(=O)[C@H](CCC(N)=O)NC(=O)[C@@H]1CCCN1C(=O)[C@@H](NC(=O)[C@H](CC(N)=O)NC(=O)[C@@H]1CCCN1C(=O)[C@H](CC(C)C)NC(=O)CNC(=O)[C@@H](NC(=O)CNC(=O)[C@H](CO)NC(=O)[C@H](CC(C)C)NC(=O)[C@H](CC(C)C)NC(=O)[C@H](CC(=O)O)NC(=O)[C@H](CS)NC(=O)[C@@H](NC(=O)[C@@H](N)[C@@H](C)O)[C@@H](C)O)C(C)C)C(C)C)C(C)C)C(=O)N[C@@H](CCCCN)C(=O)N[C@@H](Cc1c[nH]c2ccccc12)C(N)=O [peptide 4] (H-TTCDLLSGVGLPNVPQPLHCVFRGNRKIKW-NH2) | >256 µg/mL | >256 µg/mL | >256 µg/mL | >256 µg/mL | >256 µg/mL | >128 µg/mL | >128 µg/mL | >128 µg/mL | >128 µg/mL | >128 µg/mL | >128 µg/mL
2 | FGKEKKAWWRRRKWLK-NH2 [peptide 3, FGKEKKAWWRRRKWLK] | 64 µg/mL | 128 µg/mL | 4 µg/mL | 8 µg/mL | 128 µg/mL | >128 µg/mL | >128 µg/mL | >128 µg/mL | >128 µg/mL | 32 µg/mL | 32 µg/mL
